From US20240024395A1 (priority 2020, published 2024)

Tests used:
[1] = test system: mycotoxicosis due to DON ingestion; parameters: Stomach ulcer: key to the marks not given beside the values; details: pig, in vivo
[2] = pig, in vivo, 0.05 mg/kg

In the case of `CC1=C[C@H]2O[C@@H]3[C@H](O)C[C@](C)([C@@]2(CO)[C@H](O)C1=O)[C@]31CO1` [DON, deoxynivalenol], the “ADG1 average daily weight gain over the first 15 days of the challenge” value [1] is reported as 0.54, the “ADG average daily weight gain over the last 13 days of the challenge” value [1] is reported as 0.81 and the Kidneys [1] is reported as “Pail”. For the same molecule, the Liver colour [1] was “Pail”, the Stomach inflammation [1] was “++/−” and the Stomach ulcer [1] was “++”. For the same molecule, the “villus/crypt ratio, average” value [1] was 1.09, the weight begin ([1]; po, 5.4 mg/kg) was 12.69 and the weight end ([1]; po, 5.4 mg/kg) was 31.75. The “AUC0→∞ of unbound DON” value [2] was 187 ± 33 and the “Cmax of unbound DON” value [2] was 30.8 ± 2.5.
